Reference: US20250084058A1, “PHENYLPYRAZOLE COMPOUND AND APPLICATION THEREOF” (priority 2022, published 2025)
Read-outs that look alike come from different tables or passages of the source.

How the values were obtained:
Format in all cases: in vivo
Dermacentor variabilis = test: Insecticidal test on Dermacentor variabilis (compound film in culture dish); conditions: 1 μg/cm^2, 1st nymphs, after 24 h, 25° C., read-out: insect mortality (Dermacentor variabilis)
Protocol: (§1) 4 mg of compounds to be tested were dissolved in 40 mL of acetone to obtain acetone solutions with a concentration of 100 mg/L. Bottom surfaces and side surfaces of 2 culture dishes with an inner diameter of 5.3 cm were coated with 400 μL of the drug solutions, and when the acetone was volatilized, films of the compounds of the present disclosure were prepared on inner walls of the culture dishes. The inner walls of the culture dishes used were 40 cm^2, and a dose of the treatment drugs was 1 μg/cm^2. 10 1st nymphs of Dermacentor variabilis (males and females were mixed) were placed in the culture dishes. The 2 culture dishes were combined, sealed with tape at a junction portion to prevent escape of the nymphs, and then stored in a constant-temperature room at 25° C. The number of dead insects was checked after 24 h, and the insect mortality was calculated. The test was repeated for 3 times. Test results: The insect mortality of compounds 1, 2, 3, 4, 5, 11, 12, 18, 32, 33, 34, 46, 60, 74, 88, 99, 101, 102, 104, 105, 108, 109, 110, 111, 113 and 114 is 70% or above.

Ctenocephalides felis = test: Insecticidal test on Ctenocephalides felis (compound film in culture dish); conditions: 1 μg/cm^2; adult Ctenocephalides felis; after 72 h; 25° C.; read-out: insect mortality (Ctenocephalides felis)
Protocol: as §1, with “of” for “of 2”, “adult Ctenocephalides felis” for “1st nymphs of Dermacentor variabilis”, “dishes, and the” for “dishes. The 2”, “covered” for “combined, sealed with tape at a junction portion to prevent escape of the nymphs,”, “72” for “24”

Tetranychus cinnabarinus = test: Greenhouse acaricidal activity on adult acarids of Tetranychus cinnabarinus (spraying of Phaseolus vulgaris seedlings); conditions: dose 1.25 mg/L, after 72 h, read-out: mortality against adult acarids of Tetranychus cinnabarinus
Protocol: According to the solubility of the compounds to be tested, the compounds to be tested were dissolved in acetone or dimethyl sulfoxide and prepared into 50 mL of solutions to be tested at desired concentrations with a 0.1% Tween 80 solution, where the content of the acetone or dimethyl sulfoxide in the solutions was not higher than 10%.
Two true leaves of Phaseolus vulgaris seedlings were taken, and 30-40 adult acarids of Tetranychus cinnabarinus were inoculated. After the cardinal number was investigated, the whole plants were subjected to spraying treatment with a hand-held sprayer, each treatment was repeated for 3 times, and the plants were placed in a standard observation room after the treatment. The number of surviving acarids was investigated after 72 h, and the mortality was calculated.

Mythimna separata = test: Activity determination of killing Mythimna separata (Airbrush spray, corn leaf segments); conditions: foliar, dose 1.25 mg/L, 3rd instar larvae, 3rd day after administration, read-out: mortality against Mythimna separata
Protocol: (§2) The compounds to be tested were dissolved in a mixed solvent of acetone/methanol (1:1) and then diluted to desired concentrations with water containing 0.1% (wt) Tween 80.
(§3) With Mythimna separata and Plutella xylostella as targets, the activity was determined by Airbrush spray method.
Determination method: Corn leaves were cut into leaf segments with the length of 2 cm, the pressure of Airbrush spray treatment is 10 psi (about 0.7 kg/cm^2), and the compounds to be tested were sprayed onto the front and back surfaces of each leaf segment at a liquid amount of 0.5 mL. After drying in the shade, 10 3rd instar larvae were inoculated to each treatment, and each treatment was repeated for 3 times. After the treatment, the larvae were placed in an observation room for culture at 25° C. with relative humidity of 60-70%. On the 3rd day after administration, the number of surviving larvae was investigated, and the mortality was calculated.

Plutella xylostella = test: Activity determination of killing Plutella xylostella (Airbrush spray, cabbage leaf discs); conditions: foliar, 3rd day after administration; for mortality at 0.3125 µg/mL: 0.3125 mg/L, read-out: Mortality (%, on 3rd day after administration) 0.3125 mg/L; for mortality at 0.625 µg/mL: 0.625 mg/L, read-out: Mortality (%, on 3rd day after administration) 0.625 mg/L
Protocol: as §2, §3
Determination method: Cabbage leaves were punched into leaf discs with the diameter of 2 cm by a puncher, the pressure of Airbrush spray treatment is 10 psi (about 0.7 kg/cm^2), and the compounds to be tested were sprayed onto the front and back surfaces of each leaf disc at a liquid amount of 0.5 mL. After drying in the shade, 10 3rd instar larvae were inoculated to each treatment, and each treatment was repeated for 3 times. After the treatment, the larvae were placed in an observation room for culture at 25° C. with relative humidity of 60-70%. On 3rd day after administration, the number of surviving larvae was investigated, and the mortality was calculated.
Some compounds of the present disclosure and control compounds were selected to carry out parallel comparative experiments of the insecticidal activity against Plutella xylostella (on 3rd day after administration), and the determination method was the same as above.

[1] = dose 1.25 mg/L, 3rd instar larvae, read-out: mortality against Plutella xylostella
[2] = parallel comparative experiment
[3] = 1.25 mg/L, parallel comparative experiment, read-out: Mortality (%, on 3rd day after administration) 1.25 mg/L

SMILES | mortality at 1 µg/cm2 (Dermacentor variabilis) [%] | mortality at 1 µg/cm2 (Ctenocephalides felis) [%] | mortality at 1.25 µg/mL (Tetranychus cinnabarinus) [%] | mortality at 1.25 µg/mL (Mythimna separata) [%] | mortality at 1.25 µg/mL (Plutella xylostella; [1]) [%] | mortality at 0.3125 µg/mL (Plutella xylostella; [2]) [%] | mortality at 0.625 µg/mL (Plutella xylostella; [2]) [%] | mortality at 1.25 µg/mL (Plutella xylostella; [3]) [%]
N#CCN(C(=O)c1cc(-c2cnn(-c3c(Cl)cc(C(F)(C(F)(F)F)C(F)(F)F)cc3OC(F)(F)F)c2)cnc1Cl)C1CC1 [Compound 88] | ≥ 70 | ≥ 70 | ≥ 90 | ≥ 90 | ≥ 90 | – | – | –
CC(=O)N(C(=O)c1cc(-c2cnn(-c3c(Cl)cc(C(F)(C(F)(F)F)C(F)(F)F)cc3Cl)c2)cnc1Cl)C1CC1 [Compound 99] | ≥ 70 | ≥ 70 | ≥ 90 | ≥ 90 | ≥ 90 | 100 | 100 | 100
CCCC(=O)N(C(=O)c1cc(-c2cnn(-c3c(Cl)cc(C(F)(C(F)(F)F)C(F)(F)F)cc3Cl)c2)cnc1Cl)C1CC1 [Compound 101] | ≥ 70 | ≥ 70 | ≥ 90 | ≥ 90 | ≥ 90 | – | – | –
CC(C)C(=O)N(C(=O)c1cc(-c2cnn(-c3c(Cl)cc(C(F)(C(F)(F)F)C(F)(F)F)cc3Cl)c2)cnc1Cl)C1CC1 [Compound 102] | ≥ 70 | ≥ 70 | ≥ 90 | ≥ 90 | ≥ 90 | – | – | –
O=C(c1cc(-c2cnn(-c3c(Cl)cc(C(F)(C(F)(F)F)C(F)(F)F)cc3Cl)c2)cnc1Cl)N(C(=O)C1CC1)C1CC1 [Compound 104] | ≥ 70 | ≥ 70 | ≥ 90 | ≥ 90 | ≥ 90 | 100 | 100 | 100
COCC(=O)N(C(=O)c1cc(-c2cnn(-c3c(Cl)cc(C(F)(C(F)(F)F)C(F)(F)F)cc3Cl)c2)cnc1Cl)C1CC1 [Compound 105] | ≥ 70 | ≥ 70 | ≥ 90 | ≥ 90 | ≥ 90 | 100 | 100 | 100
CC(=O)N(C(=O)c1cc(-c2cnn(-c3c(Cl)cc(C(F)(C(F)(F)F)C(F)(F)F)cc3Cl)c2)cnc1Cl)C1(C#N)CC1 [Compound 108] | ≥ 70 | ≥ 70 | ≥ 90 | ≥ 90 | ≥ 90 | 100 | 100 | 100
CCC(=O)N(C(=O)c1cc(-c2cnn(-c3c(Cl)cc(C(F)(C(F)(F)F)C(F)(F)F)cc3Cl)c2)cnc1Cl)C1(C#N)CC1 [Compound 109] | ≥ 70 | ≥ 70 | ≥ 90 | ≥ 90 | ≥ 90 | – | – | –
CCCC(=O)N(C(=O)c1cc(-c2cnn(-c3c(Cl)cc(C(F)(C(F)(F)F)C(F)(F)F)cc3Cl)c2)cnc1Cl)C1(C#N)CC1 [Compound 110] | ≥ 70 | ≥ 70 | ≥ 90 | ≥ 90 | ≥ 90 | – | – | –
CC(C)C(=O)N(C(=O)c1cc(-c2cnn(-c3c(Cl)cc(C(F)(C(F)(F)F)C(F)(F)F)cc3Cl)c2)cnc1Cl)C1(C#N)CC1 [Compound 111] | ≥ 70 | ≥ 70 | ≥ 90 | ≥ 90 | ≥ 90 | – | – | –
N#CC1(N(C(=O)c2cc(-c3cnn(-c4c(Cl)cc(C(F)(C(F)(F)F)C(F)(F)F)cc4Cl)c3)cnc2Cl)C(=O)C2CC2)CC1 [Compound 113] | ≥ 70 | ≥ 70 | ≥ 90 | ≥ 90 | ≥ 90 | 100 | 100 | 100
COCC(=O)N(C(=O)c1cc(-c2cnn(-c3c(Cl)cc(C(F)(C(F)(F)F)C(F)(F)F)cc3Cl)c2)cnc1Cl)C1(C#N)CC1 [Compound 114] | ≥ 70 | ≥ 70 | ≥ 90 | ≥ 90 | ≥ 90 | 100 | 100 | 100
